Source: PMC12570502, “Kinetic characterization of RNA synthesis catalyzed by the model hyperthermophilic archaeon Thermococcus kodakarensis RNA polymerase” (mSphere, 2025)

Target: T1, T. k. RNAP (Thermococcus kodakarensis RNA polymerase) (Thermococcus kodakarensis, UniProt Q5JE32+Q5JE33+Q5JE34)
T1 construct: gene rpo1N; assembled on synthetic RNA:DNA scaffold (EC+10); with DNA-directed RNA polymerase subunit Rpo3; DNA-directed RNA polymerase subunit Rpo4; DNA-directed RNA polymerase subunit Rpo5; DNA-directed RNA polymerase subunit Rpo6; DNA-directed RNA polymerase subunit Rpo7; DNA-directed RNA polymerase subunit Rpo10; DNA-directed RNA polymerase subunit Rpo11; DNA-directed RNA polymerase subunit Rpo12
Assay: chemical quench-flow single-nucleotide addition, global fit (MENOTR)
Type: biochemical
Conditions: 25 °C, pH 8.39, Mg2+, heparin trap; elongation complex EC+10 on RNA:DNA scaffold; kinetic-model Kd with k1 fixed at 1 × 10^8 M^-1 s^-1; active site
Source text: chemical quench-flow single-nucleotide addition, global fit (MENOTR) on T. k. RNAP (Thermococcus kodakarensis RNA polymerase)

Nc1ncnc2c1ncn2[C@@H]1O[C@H](COP(=O)(O)OP(=O)(O)OP(=O)(O)O)[C@@H](O)[C@H]1O [ATP]
Kd: 2980 nM
